Laboratory results from publication PMC6972889, “Structural insight into small molecule action on Frizzleds” (Nature Communications, 2020).
Counter-ions that a name gives are not always drawn.

Assays:
[1] = molecular target: T1, FZD6 (Nluc–FZD6; SNAP–FZD6; SNAP–FZD6–Rluc8; FLAG–FZD6–Nluc) (Homo sapiens, UniProt O60353); assay: NanoBRET saturation binding, living SMO-knockout HEK293 cells; type: cell-based; conditions: Nluc–FZD6, 90 min, 37 °C; labelled compound
T1 construct: expressed in SMO-knockout HEK293 cells
T1 sequence (O60353 19-706): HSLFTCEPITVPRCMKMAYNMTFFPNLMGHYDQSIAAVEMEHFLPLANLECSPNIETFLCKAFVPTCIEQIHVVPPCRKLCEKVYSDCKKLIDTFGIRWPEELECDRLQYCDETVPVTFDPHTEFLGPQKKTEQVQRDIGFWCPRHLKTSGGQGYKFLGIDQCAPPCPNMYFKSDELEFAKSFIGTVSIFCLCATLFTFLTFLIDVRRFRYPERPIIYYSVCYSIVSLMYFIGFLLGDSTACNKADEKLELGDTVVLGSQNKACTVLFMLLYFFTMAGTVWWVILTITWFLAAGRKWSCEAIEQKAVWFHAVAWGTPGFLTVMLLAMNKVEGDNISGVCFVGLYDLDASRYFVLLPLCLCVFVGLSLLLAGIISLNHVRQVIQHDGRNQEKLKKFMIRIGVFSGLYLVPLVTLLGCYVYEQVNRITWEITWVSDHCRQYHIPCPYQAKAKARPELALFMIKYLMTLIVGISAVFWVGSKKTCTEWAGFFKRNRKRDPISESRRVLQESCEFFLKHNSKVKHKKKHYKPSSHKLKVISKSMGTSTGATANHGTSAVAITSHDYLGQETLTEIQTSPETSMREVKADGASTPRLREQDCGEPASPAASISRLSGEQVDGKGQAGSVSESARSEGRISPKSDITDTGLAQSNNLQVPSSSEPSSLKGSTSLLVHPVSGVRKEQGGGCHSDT

[2] = molecular target: T1, FZD6 (Nluc–FZD6; SNAP–FZD6; SNAP–FZD6–Rluc8; FLAG–FZD6–Nluc); assay: NanoBRET competition binding, living SMO-knockout HEK293 cells; type: cell-based
[3] = molecular target: T1, FZD6 (Nluc–FZD6; SNAP–FZD6; SNAP–FZD6–Rluc8; FLAG–FZD6–Nluc); assay: BRET Venus–mGsi recruitment in SMO-knockout HEK293 cells; type: cell-based; conditions: agonist; bell-shaped curve
FZD6–FlAsH–TFP = molecular target: T2, FZD6–FlAsH–TFP (Homo sapiens, UniProt O60353, INS404FLNCCPGCCMEP); assay: intramolecular FRET conformational probe in HEK293 cells; type: cell-based
T2 construct: from FZD6–GFP; expressed in HEK293 cells
T2 sequence (O60353 with tags, fused parts or gaps INS404FLNCCPGCCMEP): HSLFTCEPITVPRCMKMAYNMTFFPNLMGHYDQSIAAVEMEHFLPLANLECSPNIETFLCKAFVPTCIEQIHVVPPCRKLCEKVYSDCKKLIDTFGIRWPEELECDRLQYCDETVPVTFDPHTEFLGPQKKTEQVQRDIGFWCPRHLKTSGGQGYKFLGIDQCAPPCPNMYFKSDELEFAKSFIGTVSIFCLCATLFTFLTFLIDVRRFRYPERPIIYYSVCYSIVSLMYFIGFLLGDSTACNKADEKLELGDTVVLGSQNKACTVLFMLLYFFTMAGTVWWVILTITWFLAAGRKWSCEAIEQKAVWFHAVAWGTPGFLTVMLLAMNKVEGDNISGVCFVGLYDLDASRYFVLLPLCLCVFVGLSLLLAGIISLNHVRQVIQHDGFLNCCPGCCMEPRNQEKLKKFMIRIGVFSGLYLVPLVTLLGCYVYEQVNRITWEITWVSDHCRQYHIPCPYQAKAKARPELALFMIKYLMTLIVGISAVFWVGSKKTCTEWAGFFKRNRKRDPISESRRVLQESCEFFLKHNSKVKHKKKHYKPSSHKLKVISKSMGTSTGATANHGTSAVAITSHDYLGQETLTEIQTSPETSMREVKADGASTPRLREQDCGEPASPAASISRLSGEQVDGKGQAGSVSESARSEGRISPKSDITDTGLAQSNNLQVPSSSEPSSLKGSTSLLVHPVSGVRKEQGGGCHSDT

[4] = molecular target: T3, FZD4 (FZD4–Nluc; SNAP–FZD4) (Homo sapiens, UniProt Q9ULV1); assay: BRET Venus–mG13 recruitment to FZD4–Nluc; type: cell-based; conditions: negative control subtype
T3 construct: full-length receptor with C-terminal Nluc or N-terminal SNAP; expressed in HEK293-derived cells
T3 sequence (Q9ULV1 37-537): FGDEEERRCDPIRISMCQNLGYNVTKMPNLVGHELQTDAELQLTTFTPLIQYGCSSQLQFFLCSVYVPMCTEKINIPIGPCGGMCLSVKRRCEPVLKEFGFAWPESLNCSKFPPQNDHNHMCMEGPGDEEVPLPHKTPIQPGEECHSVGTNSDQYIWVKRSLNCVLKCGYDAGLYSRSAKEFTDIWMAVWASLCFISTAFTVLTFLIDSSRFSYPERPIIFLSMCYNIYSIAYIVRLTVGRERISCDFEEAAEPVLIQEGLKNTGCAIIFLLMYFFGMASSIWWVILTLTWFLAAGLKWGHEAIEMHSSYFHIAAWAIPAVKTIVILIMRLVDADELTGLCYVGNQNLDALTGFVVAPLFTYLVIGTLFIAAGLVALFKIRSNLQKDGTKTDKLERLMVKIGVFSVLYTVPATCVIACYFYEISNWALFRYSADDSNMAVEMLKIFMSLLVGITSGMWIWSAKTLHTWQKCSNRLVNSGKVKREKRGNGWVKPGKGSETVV

[5] = molecular target: T1, FZD6 (Nluc–FZD6; SNAP–FZD6; SNAP–FZD6–Rluc8; FLAG–FZD6–Nluc); assay: BRET Venus–mGsi recruitment to SNAP–FZD6–Rluc8; type: cell-based; conditions: agonist; no bell shape
SMO–Rluc8 = molecular target: T4, SMO–Rluc8 (Mus musculus, UniProt P56726); assay: BRET Venus–mGsi recruitment to SMO–Rluc8; type: cell-based; conditions: agonist; no bell shape
T4 construct: full-length receptor with C-terminal Rluc8; expressed in HEK293-derived cells

FZD6–FlAsH–TFP (human) = molecular target: T5, FZD6–FlAsH–TFP (human) (UniProt O60353)
T5 sequence (chain, FlAsH (fluorescein arsenical hairpin binder) labelled on the FlAsH-binding motif): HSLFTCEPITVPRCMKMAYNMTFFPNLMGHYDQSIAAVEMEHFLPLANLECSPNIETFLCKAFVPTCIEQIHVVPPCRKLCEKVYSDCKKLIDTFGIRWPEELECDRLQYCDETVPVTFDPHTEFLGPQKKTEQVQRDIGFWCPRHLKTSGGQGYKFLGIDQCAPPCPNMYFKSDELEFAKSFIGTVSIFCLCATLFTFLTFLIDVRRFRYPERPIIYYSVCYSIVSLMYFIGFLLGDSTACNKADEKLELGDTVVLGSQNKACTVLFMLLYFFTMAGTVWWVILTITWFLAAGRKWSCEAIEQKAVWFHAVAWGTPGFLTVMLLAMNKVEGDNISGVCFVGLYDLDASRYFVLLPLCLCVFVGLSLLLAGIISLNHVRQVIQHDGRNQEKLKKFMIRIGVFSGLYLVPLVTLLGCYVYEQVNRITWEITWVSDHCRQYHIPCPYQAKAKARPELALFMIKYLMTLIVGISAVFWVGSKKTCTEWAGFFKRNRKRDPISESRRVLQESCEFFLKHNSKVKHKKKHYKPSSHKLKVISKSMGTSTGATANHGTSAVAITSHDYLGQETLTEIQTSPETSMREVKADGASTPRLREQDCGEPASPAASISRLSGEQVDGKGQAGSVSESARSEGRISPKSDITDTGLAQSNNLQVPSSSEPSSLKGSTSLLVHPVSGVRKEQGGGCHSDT

T4 sequence (P56726 33-793): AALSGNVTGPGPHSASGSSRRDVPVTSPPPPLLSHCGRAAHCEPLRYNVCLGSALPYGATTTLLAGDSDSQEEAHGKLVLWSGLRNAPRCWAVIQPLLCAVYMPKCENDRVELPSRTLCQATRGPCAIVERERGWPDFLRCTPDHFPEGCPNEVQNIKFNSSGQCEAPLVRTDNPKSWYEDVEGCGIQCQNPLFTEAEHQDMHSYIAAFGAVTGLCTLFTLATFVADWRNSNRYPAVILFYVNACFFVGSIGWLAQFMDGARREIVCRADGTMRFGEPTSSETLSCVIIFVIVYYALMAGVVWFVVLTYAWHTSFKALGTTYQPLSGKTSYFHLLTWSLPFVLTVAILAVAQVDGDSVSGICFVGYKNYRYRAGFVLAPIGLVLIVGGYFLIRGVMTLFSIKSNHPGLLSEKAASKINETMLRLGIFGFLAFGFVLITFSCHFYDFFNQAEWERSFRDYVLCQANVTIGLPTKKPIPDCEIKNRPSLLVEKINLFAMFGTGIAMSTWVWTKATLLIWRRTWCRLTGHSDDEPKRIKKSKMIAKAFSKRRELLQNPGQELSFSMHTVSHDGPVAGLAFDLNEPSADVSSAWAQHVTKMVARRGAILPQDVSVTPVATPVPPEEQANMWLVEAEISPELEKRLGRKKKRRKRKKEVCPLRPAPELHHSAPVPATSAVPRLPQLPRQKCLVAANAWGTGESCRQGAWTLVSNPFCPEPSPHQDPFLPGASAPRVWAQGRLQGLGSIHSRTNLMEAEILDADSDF

CC1=C2CC3C(CC=C4C[C@@H](O)CCC43C)C2CCC12O[C@@H]1CC(C)CN(CCNC(=O)CCCCCNC(=O)CCC3=[N+]4C(=Cc5c(C)cc(C)n5[B-]4(F)F)C=C3)C1C2C (stereo partly drawn) [BODIPY–cyclopamine]
pKd [1]: 6.3 ± 0.1

CN[C@H]1CC[C@H](N(Cc2cccc(-c3ccncc3)c2)C(=O)c2sc3ccccc3c2Cl)CC1 [SAG1.3, 3-chloro-N-[trans-4-(methylamino)cyclohexyl]-N-[[3-(4-pyridinyl)phenyl]methyl]-benzo[b]thiophene-2-carboxamide dihydrochloride]
Ki [2]: 2.51 µM
EC50 [3]: A similar biphasic concentration–response curve was observed
EC50 (FZD6–FlAsH–TFP): 0.316 µM
BRET Venus-mG13 recruitment to FZD4-Nluc [4]: we did not detect any SAG1.3-induced Venus–mG13 recruitment

c1ccc2c(Oc3nc(Nc4ccc(N5CCOCC5)cc4)c4ncn(C5CCCCC5)c4n3)cccc2c1 [purmorphamine, 9-cyclohexyl-N-[4-(4-morpholinyl)phenyl]-2-(1-naphthalenyloxy)-9H-purin-6-amine]
EC50 [5]: concentration-dependent recruitment of Venus–mGsi to SMO–Rluc8 (d) and SNAP–FZD6–Rluc8
EC50 (SMO–Rluc8): concentration-dependent recruitment of Venus–mGsi to SMO–Rluc8 and SNAP–FZD6–Rluc8

B1: recombinant WNT-5A (ligand)
chain: IIGAQPLCSQLAGLSQGQKKLCHLYQDHMQYIGEGAKTGIKECQYQFRHRRWNCSTVDNTSVFGRVMQIGSRETAFTYAVSAAGVVNAMSRACREGELSTCGCSRAARPKDLPRDWLWGGCGDNIDYGYRFAKEFVDARERERIHAKGSYESARILMNLHNNEAGRRTVYNLADVACKCHGVSGSCSLKTCWLQLADFRKVGDALKEKYDSAAAMRLNSRGKLVQVNSRFNSPTTQDLVYIDPSPDYCVRNESTGSLGTQGRLCNKTSEGMDGCELMCCGRGYDQFKTVQTERCHCKFHWCCYVKCKKCTEIVDQFVCK
decrease of the intramolecular FRET ratio (FlAsH/TFP) of the FZD6–FRET probe in HEK293 cells with increasing concentrations of WNT-5A; log10EC50 (log10 (ng ml^−1)) (FZD6–FlAsH–TFP (human)): 2.2
decrease of the intramolecular FRET ratio (FlAsH/TFP) of the FZD6–FRET probe in HEK293 cells, WNT-5A up to 1000 ng ml^−1; maximum efficacy (FZD6–FlAsH–TFP (human)): 4.9%
